Source: US11370774B2, “Substituted benzofuran, benzopyrrole, benzothiophene, and structurally related complement inhibitors” (BioCryst Pharmaceuticals, Inc., priority 2018, dated 2022)

These compounds were tested against Factor D (Homo sapiens (Human), UniProt P00746) (assay: Factor D esterolytic assay (Z-Lys-SBzl substrate, DTNB, 405 nm)). Details: Z-Lys-SBzl 1.29 mM, pH 7.5, 10% DMSO, tested a minimum of three times, read-out: Measured Ki (IC50) Value for Compounds: IC50.
Sequence of Factor D (P00746 26-253): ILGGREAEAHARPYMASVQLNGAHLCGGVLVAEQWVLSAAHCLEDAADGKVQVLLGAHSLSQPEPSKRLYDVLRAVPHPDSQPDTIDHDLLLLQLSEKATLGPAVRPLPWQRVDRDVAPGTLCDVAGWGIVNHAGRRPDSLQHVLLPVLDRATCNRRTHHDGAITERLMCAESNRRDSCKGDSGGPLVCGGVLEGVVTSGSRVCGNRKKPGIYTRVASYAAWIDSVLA
Assay type: biochemical
Summary of the method: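 Human Factor D ([…]) with 1.29 mM Z-Lys-SBzl in 100 mM HEPES, 500 mM NaCl, pH 7.5, 10% DMSO; substrate added immediately or after room-temperature preincubation. Released thiol reacted with DTNB, rate followed at 405 nm for 600 sec, 690 nm background subtracted. IC50 from percent inhibition versus uninhibited rate, n≥3.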
An IC50 of less than 1000 nM was found for `CC(C)S(=O)(=O)n1ccc2c(-c3cccc(CN)c3F)cc(COc3ccccc3CC(=O)O)cc21` [Compound 229b, 2-(2-((4-(3-(aminomethyl)-2-fluorophenyl)-1-(isopropylsulfonyl)-1H-indol-6-yl)methoxy)phenyl)acetic acid] in this work. An IC50 of 1000 to 10000 nM was found for `NCc1cccc(-c2cc(COc3cccnc3CC(=O)O)cc3ccoc23)c1` [Compound 230e, 2-(3-((7-(3-(aminomethyl)phenyl)benzofuran-5-yl)methoxy)pyridin-2-yl)acetic acid] in this work. An IC50 of less than 1000 nM was found for `NCc1cccc(-c2cc(COc3ncccc3CC(=O)O)cc3ccoc23)c1` [Compound 231c, 2-(2-((7-(3-(aminomethyl)phenyl)benzofuran-5-yl)methoxy)pyridin-3-yl)acetic acid] in this work. An IC50 of less than 1000 nM was found for `NCc1cc(-c2cc(COc3ccccc3CC(=O)O)cc3c2ccn3S(=O)(=O)C2CC2)ccn1` [Compound 232c, 2-(2-((4-(2-(aminomethyl)pyridin-4-yl)-1-(cyclopropylsulfonyl)-1H-indol-6-yl)methoxy)phenyl)acetic acid] in this work. An IC50 of less than 1000 nM was found for `CC(C)S(=O)(=O)n1ccc2c(-c3ccnc(CN)c3)cc(COc3ccccc3CC(=O)O)cc21` [Compound 233c, 2-(2-((4-(2-(aminomethyl)pyridin-4-yl)-1-(isopropylsulfonyl)-1H-indol-6-yl)methoxy)phenyl)acetic acid] in this work. An IC50 of less than 1000 nM was found for `NCc1cccc(-c2cc(COc3ccccc3C(NC(=O)[C@@H]3C[C@H]3c3ccccc3)C(=O)O)cc3ccoc23)c1` (stereo partly drawn) [Compound 234f, 2-(2-((7-(3-(aminomethyl)phenyl)benzofuran-5-yl)methoxy)phenyl)-2-((1R,2R)-2-phenylcyclopropanecarboxamido)acetic acid] in this work. An IC50 of less than 1000 nM was found for `NCc1cccc(-c2cc(COc3ccccc3CC(=O)O)cc3cc(C(F)(F)F)oc23)c1F` [Compound 235b, 2-(2-((7-(3-(aminomethyl)-2-fluorophenyl)-2-(trifluoromethyl)benzofuran-5-yl)methoxy)phenyl)acetic acid] in this work. An IC50 of less than 1000 nM was found for `NCc1cccc(-c2cc(COc3cc(CN)ccc3CC(=O)O)cc3ccoc23)c1` [Compound 236d, 2-(4-(aminomethyl)-2-((7-(3-(aminomethyl)phenyl)benzofuran-5-yl)methoxy)phenyl)acetic acid] in this work. An IC50 of less than 1000 nM was found for `N#Cc1ccc(CC(=O)O)c(OCc2cc(-c3cccc(CN)c3)c3occc3c2)c1` [Compound 237b, 2-(2-((7-(3-(aminomethyl)phenyl)benzofuran-5-yl)methoxy)-4-cyanophenyl)acetic acid] in this work. An IC50 of less than 1000 nM was found for `NCc1cccc(-c2cc(COc3cc(C(N)=O)ccc3CC(=O)O)cc3ccoc23)c1` [Compound 238c, 2-(2-((7-(3-(aminomethyl)phenyl)benzofuran-5-yl)methoxy)-4-carbamoylphenyl)acetic acid] in this work. An IC50 of less than 1000 nM was found for `N#Cc1ccc(OCc2cc(-c3cccc(CN)c3)c3occc3c2)c(CC(=O)O)c1` [Compound 239c, 2-(2-((7-(3-(aminomethyl)phenyl)benzofuran-5-yl)methoxy)-5-cyanophenyl)acetic acid] in this work. An IC50 of less than 1000 nM was found for `NCc1nccc(-c2cc(COc3ccccc3CC(=O)O)cc3cc(C(F)(F)F)oc23)c1F` [Compound 240d, 2-(2-((7-(2-(aminomethyl)-3-fluoropyridin-4-yl)-2-(trifluoromethyl)benzofuran-5-yl)methoxy)phenyl)acetic acid] in this work. An IC50 of less than 1000 nM was found for `NCc1cccc(-c2cc(C(=O)Nc3ccccc3CC(=O)O)c(F)c3ccoc23)c1` [Compound 241c, 2-(2-(7-(3-(aminomethyl)phenyl)-4-fluorobenzofuran-5-carboxamido)phenyl)acetic acid] in this work. An IC50 greater than 10000 nM was found for `NCc1ccccc1-c1cc(COc2ccccc2CC(=O)O)cc2ccoc12` [Compound 243d, 2-(2-((7-(2-(aminomethyl)phenyl)benzofuran-5-yl)methoxy)phenyl)acetic acid] in this work. An IC50 of 1000 to 10000 nM was found for `NCc1cccc(-c2cc(COc3ccc(C(N)=O)cc3CC(=O)O)cc3ccoc23)c1` [Compound 244c, 2-(2-((7-(3-(aminomethyl)phenyl)benzofuran-5-yl)methoxy)-5-carbamoylphenyl)acetic acid] in this work.
